# Results published in article doi:10.1101/2025.03.27.645769, “Structural Insights into Kainate Receptor Desensitization” (bioRxiv, 2025).
# Biological target: T1, GluK2 (Rattus norvegicus, UniProt P42260)
# T1 construct: gene Grik2; wild-type rat GluK2 expressed in HEK293T cells
# Assay: whole-cell patch-clamp, potentiation of glutamate-evoked peak current
# Assay type: cell-based
# T1 sequence (P42260 32-908): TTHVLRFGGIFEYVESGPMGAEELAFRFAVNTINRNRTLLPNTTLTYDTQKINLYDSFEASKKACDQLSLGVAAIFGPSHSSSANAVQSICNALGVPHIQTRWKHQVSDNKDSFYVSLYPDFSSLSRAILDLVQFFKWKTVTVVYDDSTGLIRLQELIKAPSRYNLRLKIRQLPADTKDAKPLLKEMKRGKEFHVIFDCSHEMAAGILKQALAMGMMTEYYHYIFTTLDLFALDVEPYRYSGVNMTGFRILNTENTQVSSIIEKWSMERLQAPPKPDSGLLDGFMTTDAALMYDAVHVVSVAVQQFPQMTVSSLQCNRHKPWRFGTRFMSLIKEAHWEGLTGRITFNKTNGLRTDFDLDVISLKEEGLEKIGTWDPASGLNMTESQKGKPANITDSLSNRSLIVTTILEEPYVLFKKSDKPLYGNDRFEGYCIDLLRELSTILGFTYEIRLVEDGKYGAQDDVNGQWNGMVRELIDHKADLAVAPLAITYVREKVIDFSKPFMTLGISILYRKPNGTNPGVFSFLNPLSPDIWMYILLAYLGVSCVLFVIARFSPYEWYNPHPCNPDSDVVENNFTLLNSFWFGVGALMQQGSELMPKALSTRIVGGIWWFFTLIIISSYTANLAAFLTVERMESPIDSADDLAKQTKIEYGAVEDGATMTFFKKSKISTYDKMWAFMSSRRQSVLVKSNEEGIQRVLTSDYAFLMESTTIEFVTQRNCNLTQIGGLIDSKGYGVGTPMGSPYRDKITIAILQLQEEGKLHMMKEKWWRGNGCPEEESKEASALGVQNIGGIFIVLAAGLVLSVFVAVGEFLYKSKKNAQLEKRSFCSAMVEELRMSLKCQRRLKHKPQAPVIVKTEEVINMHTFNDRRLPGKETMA
smiles,measurement,value
O=S1(=O)NCN(C2CC2)c2ccc(F)cc21 [BPAM344],"whole-cell patch-clamp, potentiation of glutamate-evoked peak current",Potentiation of the peak current amplitudes (Ipeak) of GluK2 WT (left)
